Test results published in US5032591A, “Pharmaceutical preparations” (Beecham Group p.l.c., priority 1988, dated 1991).

Tested on: conscious male spontaneously hypertensive rats (SHR)
Assay: anti-hypertensive response: area under the control group blood pressure curve (mean arterial blood pressure, indwelling catheter) in conscious male spontaneously hypertensive rats
Format: in vivo
Details: cromakalim 0.075 mg/kg po, n=10
Protocol: Mean arterial blood pressures were measured from an indwelling catheter as described by Buckingham 1976 J. Pharm. Pharmac Vol. 28, pp 459-461. 1. Calculation of area under the control group blood pressure curve (AUC). Group mean arterial blood pressure values were calculated as % change from the pretreatment baseline. For each drug treatment group the area under the control group blood pressure curve was calculated using a trapezoidal method. […] Predicted AUC values were arrived at by combining values for each treatment given alone.

For `CC1(C)Oc2ccc(C#N)cc2[C@@H](N2CCCC2=O)[C@@H]1O` (racemic) [Cromakalim, (±)-6-cyano-3,4-dihydro-2,2-dimethyl-trans-4-(2-oxo-1-pyrrolidinyl)-2H-benzo[b]pyran-3-ol], the “AUC (0-2 h)” value (0-2 h) was 1941 and the “AUC (0-4 h)” value (0-4 h) was 2981.
